Measured values as given in patent US20050026949A1, “Methods of therapeutic treatment using amounts of retinoids without regard to body weight” (Allergan, Inc., priority 2003, published 2005).

Experiments:
patients = assay: Two placebo-controlled 24-week safety studies of oral tazarotene plus dose-response evaluations (Example 3); assay type: in vivo, human
Description: Two multicenter, double-blind, randomized, placebo-controlled 24-week studies of identical design are conducted to evaluate the safety of oral tazarotene. In addition, 16- to 24-week dose-response evaluations are performed.
In the two safety trials, the incidence of adverse side effects with a 4.5 mg dose administered orally once daily is compared to the incidence of the same side effects with a placebo. […] The majority of these were mild in severity and typical of adverse effects associated with oral retinoids.

[1] = system: patients with moderate to very severe plaque psoriasis; assay: Open-label extension study of oral tazarotene (Example 4); assay type: in vivo, human
Description: Two multicenter, double-blind, placebo-controlled studies ware conducted to evaluate the efficacy and safety of oral tazarotene (4.5 mg once daily) in patients with moderate to very severe plaque psoriasis. […] Efficacy evaluations include overall lesional assessment (OLA), percent body surface area involvement, global response to treatment, plaque elevation, scaling, and erythema. OLA is graded on a 6-point scale (0=none, 1=minimal, 2=mild, 3=moderate, 4=severe, 5=very severe).

[2] = system: patients having nodulocystic acne; assay: Two placebo-controlled dose-ranging safety studies of oral tazarotene (Example 5); assay type: in vivo, human; conditions: for incidence of joint disorder: placebo 0%; for incidence of arthralgia: placebo 6%; for incidence of myalgia: placebo 9%; for incidence of asthenia: placebo 13%; for incidence of dry skin: placebo 19%; for incidence of headache: placebo 28%; for incidence of cheilitis: placebo 31%; for depression: placebo 1 (2%); for emotional lability (all cases mild): placebo 2 (4%)
Description: Two placebo-controlled dose-ranging studies are conducted to evaluate the safety of oral tazarotene in patients having nodulocystic acne. In the first study, patients receive orally administered tazarotene at daily doses of 0.4 mg to 2.8 mg in 96 (71+25) patients (12 weeks treatment plus 12 weeks post-treatment). In the second study, daily doses of 0.75 mg to 6 mg tazarotene are administered to 181 patients (24 weeks treatment plus 12 weeks post-treatment).

[3] = PK and PD interaction studies of oral tazarotene with oral contraceptives (Example 8); assay type: in vivo, human
Description: It is the objective of this study to determine if there are pharmacokinetic (PK) and pharmacodynamic (PD) interactions between tazarotene and commonly prescribed oral contraceptives (OCs) when coadministered together.
Three separate clinical studies are conducted to evaluate the PK and PD interactions of oral tazarotene and OCs in healthy volunteers. Two studies evaluate daily doses of norethindrone (NE)/ethinyl estradiol (EE) with daily doses of tazarotene 1.1 mg (N=27) and 6 mg (N=29). The third study assesses the daily doses of norgestimate (NGM)/EE with daily doses of tazarotene 6 mg (N=26). OCs are administered for three consecutive menstrual cycles. Daily doses of tazarotene are started during the 2nd cycle and continued through the end of the studies. PK parameters for EE, NE, and NGM (AUC0-24 and Cmax) are determined before tazarotene dosing and after tazarotene dosing on day 6 of the 2nd and 3rd cycles. Serum concentrations of luteinizing hormone (LH) and follicle-stimulating hormone (FSH)-markers of contraceptive efficacy are also evaluated before tazarotene dosing and after tazarotene dosing on days 2, 4, and 6 of the 2nd and 3rd cycles. Serum progesterone levels are assessed on days 18 and 20 of the 2nd and 3rd cycles.
The plasma of each subject is tested for Cmax and AUC of tazarotenic acid, the primary active retinoid agent in systemic circulation as the result of the oral administration of tazarotene.

[4] = system: patient with severe psoriasis; assay: Patient with severe psoriasis taking Ortho-Novum treated with tazarotene (Example 9); assay type: in vivo, human
Text: The patient presents symptoms of severe psoriasis. The symptoms include lesions approximately 4 to 10 centimeters across appearing as raised patches of wine red skin many of which are covered in silvery white scales. The lesions are mostly dry and rough, and quite often noticeably warm to the touch. The lesions are present on the elbows, knees, scalp, and groin area. The patient experiences intense burning and itching associated with the lesions.
The patient is currently taking Ortho-Novum® for contraception.
Tazarotene at a dose of 6 mg per day is prescribed.

AP1 = AP1 antagonism
[5] = system: patients with moderate to very severe plaque psoriasis; assay: Open-label extension study of oral tazarotene (Example 4); assay type: in vivo, human; conditions: 4.5 mg once daily, 12-week extension treatment period, both groups
[6] = 4.5 mg orally once daily, placebo 0%
[7] = 4.5 mg orally once daily, placebo 1%
[8] = 4.5 mg orally once daily, placebo 2%
[9] = 4.5 mg orally once daily, placebo 3%
[10] = 4.5 mg orally once daily, placebo 8%
[11] = 4.5 mg orally once daily, placebo <1%
[12] = 4.5 mg once daily, 12-week extension treatment period, both groups
[13] = 4.5 mg once daily, extension study

CCOC(=O)c1ccc(C#Cc2ccc3c(c2)C(C)(C)CCS3)nc1 [tazarotene]
incidence of patients discontinuing due to adverse effects (patients; 4.5 mg (n=348)): 3%
incidence of ocular, auditory, or thyroid problems (patients; 4.5 mg orally once daily vs placebo): no statistically significant between-group difference
incidence of agitation (patients; [6]): < 1%
incidence of dermatitis (patients; [6]): 1%
incidence of hyperglycemia (patients; [6]): 2%
incidence of foot pain (patients; [7]): 3%
incidence of joint disorder (patients; [7]): 4%
incidence of nasal dryness (patients; [7]): 4%
incidence of rash (patients; [7]): 3%
incidence of altered hormone levels (elevated TSH and T4, decreased T4, abnormal thyroid function test) (patients; [8]): 0%
incidence of depression (patients; [8]): 1%
incidence of back pain (patients; [9]): 7%
incidence of emotional lability (patients; [9]): 3%
incidence of arthralgia (patients; [10]): 17%
incidence of myalgia (patients; [10]): 14%
incidence of headache (patients; 4.5 mg orally once daily, placebo 12%): 19%
incidence of dry skin (patients; 4.5 mg orally once daily, placebo 15%): 24%
incidence of cheilitis (patients; 4.5 mg orally once daily, placebo 17%): 66%
incidence of anxiety (patients; [11]): 1%
incidence of psychosis (patients; [11]): 0%
incidence of psychotic depression (patients; [11]): 0%
incidence of patients discontinuing due to adverse effects (patients; 6.3 mg (n=16)): 13%
incidence of patients discontinuing due to adverse effects (patients; 0.4 to 1.1 mg oral tazarotene (n=105)): approximately 2%
incidence of patients discontinuing due to adverse effects (patients; 2.1 to 2.8 mg oral tazarotene (n=21)): 10%
incidence of patients discontinuing due to adverse effects (patients; w.2 mg (n=14)): 0%
incidence of arthralgia [1, 12]: 20%
incidence of cheilitis [1, 12]: 70%
incidence of dry skin [1, 12]: 25%
incidence of hypertriglyceridemia [1, 12]: 6%
patients with clinical success (2-grade reduction in OLA) ([1]; 4.5 mg once daily, end of the 12-week treatment period): 28%
changes in liver function test values or cholesterol levels [1, 13]: no clinically significant changes
serious adverse events [1, 13]: no serious adverse events considered related to the study treatment
patients with clinical success (2-grade reduction in OLA) ([1]; end of the 12-week post-treatment period): 16%
changes in urinalysis, chemistry, or hematology measures (including liver function tests, triglycerides, total cholesterol, HDL cholesterol) ([2]; 0.4 mg to 6 mg daily): no consistent dose-related clinically significant changes
ligament calcification, osteophyte formation, or changes in serum bone alkaline phosphatase, serum amino terminal telopeptides, or bone density ([2]; 0.4 mg to 6 mg daily): not associated with any clinically significant
patients withdrawing due to adverse events ([2]; 0.75 mg): 2 patients
incidence of joint disorder ([2]; 2.8 mg, n=11): 27%
incidence of arthralgia ([2]; 2.8 mg, n=11): 9%
incidence of myalgia ([2]; 2.8 mg, n=11): 0%
incidence of asthenia ([2]; 2.8 mg, n=11): 0%
incidence of dry skin ([2]; 2.8 mg, n=11): 18%
incidence of headache ([2]; 2.8 mg, n=11): 9%
incidence of cheilitis ([2]; 2.8 mg, n=11): 64%
patients withdrawing due to adverse events ([2]; 3 mg): 2 patients
cheilitis, mild ([2]; 3 mg group): 25 patients
cheilitis, moderate ([2]; 3 mg group): 3 patients
cheilitis, severe ([2]; 3 mg group): 1 patient
dry skin, mild ([2]; 3 mg group): 11 patients
dry skin, moderate ([2]; 3 mg group): 2 patient
depression ([2]; 3 mg group (2 mild, 1 severe)): 3 (8%) patients (%)
emotional lability (all cases mild) ([2]; 3 mg group): 1 (3%) patient (%)
incidence of joint disorder ([2]; 3 mg, n=37): 14%
incidence of arthralgia ([2]; 3 mg, n=37): 8%
incidence of myalgia ([2]; 3 mg, n=37): 16%
incidence of asthenia ([2]; 3 mg, n=37): 19%
incidence of dry skin ([2]; 3 mg, n=37): 35%
incidence of headache ([2]; 3 mg, n=37): 19%
incidence of cheilitis ([2]; 3 mg, n=37): 78%
patients withdrawing due to adverse events ([2]; 6 mg): 1 patients
cheilitis, mild ([2]; 6 mg group): 27 patients
cheilitis, moderate ([2]; 6 mg group): 6 patients
cheilitis, severe ([2]; 6 mg group): 1 patient
dry skin, mild ([2]; 6 mg group): 17 patients
dry skin, moderate ([2]; 6 mg group): 1 patient
depression ([2]; 6 mg group): none
emotional lability (all cases mild) ([2]; 6 mg group): 5 (14%) patient (%)
incidence of joint disorder ([2]; 6 mg, n=36): 19%
incidence of arthralgia ([2]; 6 mg, n=36): 28%
incidence of myalgia ([2]; 6 mg, n=36): 25%
incidence of asthenia ([2]; 6 mg, n=36): 19%
incidence of dry skin ([2]; 6 mg, n=36): 50%
incidence of headache ([2]; 6 mg, n=36): 36%
incidence of cheilitis ([2]; 6 mg, n=36): 94%
patients withdrawing from either study due to adverse events ([2]; 7/277, all groups incl. placebo): 2.5%
dry skin, severe ([2]; all groups): No patient has severe dry skin
effect on PK or efficacy of NE/EE and NGM/EE oral contraceptives ([3]; orally, up to 6 mg once daily): does not affect
90% confidence intervals of AUC0-24 and Cmax for EE, NE, and NGM ([3]; tazarotene 1.1 mg or 6 mg daily with NE/EE, 6 mg daily with NGM/EE): within the 80-125% boundary
90% confidence intervals of FSH and LH ([3]; tazarotene coadministered with oral contraceptives): generally within the 80-125% boundary
90% confidence intervals of progesterone concentrations ([3]; tazarotene coadministered with oral contraceptives, days 18 and 20 of 2nd and 3rd cycles): within the 80-125% boundary
serum FSH and LH levels ([3]; tazarotene coadministered with oral contraceptives, follicular phase): remain within the normal ranges
psoriasis symptoms and lesions ([4]; 6 mg per day, after 30 days): symptoms of itching and burning are relieved and the severity of their lesions are substantially lessened
serum FSH and LH levels ([4]; tazarotene 6 mg per day with Ortho-Novum): remain within the normal ranges
AP1 antagonism (AP1): potent AP1 antagonist
incidence of asthenia [5]: 6%
incidence of back pain [5]: 11%
incidence of headache [5]: 11%
incidence of infection [5]: 10%
incidence of myalgia [5]: 15%
